In patent publication US20220096431A1, “PHARMACEUTICAL COMPOSITION AND METHOD FOR PREVENTING, TREATING AND DIAGNOSING A NEURODEGENERATIVE DISEASE” (BUDDHIST TZU CHI MEDICAL FOUNDATION, priority 2020, published 2022):
“Also recorded” adds a separate entry of the source.

Experiments:
[1] = tested on: neurons differentiated from trisomy 21-iPSC; experiment: Aβ aggregation, phosphorylated Tau and miRNA in neurons differentiated from Ts21-iPSC; assay type: cell-based, human
Text: The neurons differentiated from the induced pluripotent stem cells produce hyperphosphorylated Tau (AT8). Excessive expression of AT8 affects winding signals and nutrient transmission of neurons; Aβ 1-42 is the main component of amyloid accumulation; microtubule-associated protein (microtubule-associated protein 2, MAP2) is a marker of neurons which mainly maintains the stability of dendritic neurons; tubulin (neuron-specific class III β-tubulin, TuJ1) is also a marker of neurons.
By genetic engineering, the four transcription factors Oct-4, Sox-2, c-Myc, and Klf-4 were delivered into adult cells and reverse-transcribed the cells into induced pluripotent stem cells (iPSC) carrying trisomy 21(Ts21) gene mutation.

[2] = tested on: Ts-21 iPSCs (neurons with Alzheimer's disease symptoms); experiment: Gene microarray analysis of n-BP-treated Ts-21 iPSCs; assay type: cell-based, human
Text: To examine the mechanism by which n-BP regulated miR expression, n-BP-treated Ts-21 iPSCs were subjected to gene microarray analysis. […] The 4 predicted binding energy between lnc-CYP3A43-2 and miR-29b-2-5p are the lowest (−11.49 Kcal/mol) among these four lncRNA and the predicted target sequence between lnc-CYP3A43-2 and miR-29b-2-5p are shown in FIG. 6G.
For example, ATP6V0D2 and IST1 are autophagy-related genes, and the expression levels thereof increase by 30.07 times and 15.72 times, respectively, after administration of n-butylidenephthalide, while genes related to inflammation including NT5E, STAP1, DEC1, ADAMDEC1 have their expression levels reduced by 12.6, 12.79, 28.35 and 43.55 times, respectively.

3xTg transgenic mice = experiment: Amyloid accumulation in the brain of 3xTg transgenic mice, single and combined treatment (FIG. 11); assay type: in vivo; conditions: 3xTg mice; 60 mg/kg n-butylidenephthalide, 200 mg/kg vitamin C, alone or combined; vs olive oil control
[3] = tested on: NICD, Aβ1-42 and PSEN1 in iPSC-derived human neurons; experiment: Western blot of NICD, Aβ1-42 and PSEN1 in iPSC-derived human neurons; assay type: cell-based; conditions: 100 μM n-BP, 48 h
Description: Because the Notch intracellular domain (NICD) is most relevant to the development of AD drugs, western blot analysis was conducted to explore the effect of 100 μM n-BP-induced inhibition of Notch cleavage in iPSC-derived human neurons and on the expressions of miR-29b-2-5p and PSEN1. […] The change in the expressions of miR-29b-2-5p, PSEN1, and Aβ1-42 was therefore consistent with those observed in n-BP-treated Ts-21 iPSCs.

Aβ1-42 = experiment: ELISA of Aβ1-42 in the medium of Ts-21 iPSCs; assay type: cell-based, human; conditions: 100 μM n-BP
SH-SY5Y = experiment: MTT cell viability of SH-SY5Y cells; conditions: n-Bp 100 μM, vitamin C 200 μM
Description: Then, the cell viability is detected by a cell survival test using (3-(4,5-dimethylthiazol-2-yl)-2,5-diphenyltetrazolium bromide (MTT) assay.

3xTg AD mice = experiment: 18F-FBB PET/CT of amyloid accumulation in the brain of 3xTg mice; assay type: in vivo
Description: N=4 for wild-type and 10 mg/kg donepezil-treated 3xTg mice. N=6 for vehicle-treated 3xTg mice, 60 mg/kg n-BP-treated 3xTg mice, and 120 mg/kg n-BP-treated 3xTg mice. *p-value<0.05, **p-value<0.01 (Student's t-test). […] After 4-12 months, the B6 (C57/BL6) control mice have no AP accumulation (Green color).
FIGS. 8B and 8C show the comparison of VOI-based 18F-florbetaben SUVR(CTX/CB) and SUVR (HIP/CB) between B6 mice, vehicle-treated 3xTg transgenic, and n-BP-treated mice (60 mg/kg) aged 6 and 12 months. n=4 for B6 mice. n=5 for 3xTg mice. SUVR; standard uptake value ratio, M; months, cerebellum: CB.
The accumulation of amyloid in brain tissues can be detected by using an amyloid tracking agent, 18F-Florbetaben (FBB). 18F-FBB positron emission tomography-computed tomography (PET/CT) was used to explore the effect of n-BP treatment on AP accumulation in the hippocampus and cortex. The accumulation of amyloid will appear red in the picture. The quantity and location of AP accumulation in the brains of mice were determined using the tracking reagent 18F-FBB from birth to 4 to 12 months of age.

[4] = neurons with Alzheimer's disease symptoms, autophagy-related gene
[5] = neurons with Alzheimer's disease symptoms, inflammation-related gene

CCCC=C1OC(=O)c2ccccc21 [n-BP, n-butylidenephthalide]
Aβ aggregation ([1]; FIG. 5B): effectively reduces | Phosphorylation of Tau protein ([1]; FIG. 5B): effectively reduces | Expression level of miRNA-29b-2-5p ([1]; FIG. 5C): increased significantly | Aggregation of Aβ 1-42 (protein levels) ([1]; FIG. 5D): decreased | Protein expression of phosphorylated Tau protein ([1]; FIG. 5D): decreased | Multiple of change ([2]; gene A 21 P0014752, neurons with Alzheimer's disease symptoms): 17.29 | Multiple of change ([2]; gene ADAMDECI, neurons with Alzheimer's disease symptoms): −43.55 | Multiple of change ([2]; gene ATP6VOD2, neurons with Alzheimer's disease symptoms): 30.07 | Multiple of change ([2]; gene BG182298, neurons with Alzheimer's disease symptoms): −11.75 | Multiple of change ([2]; gene CTLA4, neurons with Alzheimer's disease symptoms): 29.78 | Multiple of change ([2]; gene DECI, neurons with Alzheimer's disease symptoms): −28.35 | Multiple of change ([2]; gene EN ST00000442006, neurons with Alzheimer's disease symptoms): −26.17 | Multiple of change ([2]; gene EN ST00000552046, neurons with Alzheimer's disease symptoms): −38.01 | Multiple of change ([2]; gene EN ST00000589476, neurons with Alzheimer's disease symptoms): −26.08 | Multiple of change ([2]; gene ENST00000427341, neurons with Alzheimer's disease symptoms): 36.49 | Multiple of change ([2]; gene ENST00000444130, neurons with Alzheimer's disease symptoms): 21.29 | Multiple of change ([2]; gene ENST00000496217, neurons with Alzheimer's disease symptoms): 50.33 | Multiple of change ([2]; gene ENST00000503666, neurons with Alzheimer's disease symptoms): 47.83 | Multiple of change ([2]; gene ENST00000554445, neurons with Alzheimer's disease symptoms): 27.81 | Multiple of change ([2]; gene ENST00000556397, neurons with Alzheimer's disease symptoms): 30.44 | Multiple of change ([2]; gene GATA3, neurons with Alzheimer's disease symptoms): 10.76 | Multiple of change ([2]; gene ISTI, neurons with Alzheimer's disease symptoms): 15.72 | Multiple of change ([2]; gene Inc-DCTD-2, neurons with Alzheimer's disease symptoms): 9.25 | Multiple of change ([2]; gene Inc-RP11-766F14.2.1-1, neurons with Alzheimer's disease symptoms): −34.38 | Multiple of change ([2]; gene LOC100131532, neurons with Alzheimer's disease symptoms): 47.19 | Multiple of change ([2]; gene LOC101060106, neurons with Alzheimer's disease symptoms): 22.27 | Multiple of change ([2]; gene LOC101928280, neurons with Alzheimer's disease symptoms): −43.14 | Multiple of change ([2]; gene LOC101928885, neurons with Alzheimer's disease symptoms): 21.40 | Multiple of change ([2]; gene MBOATI, neurons with Alzheimer's disease symptoms): −4.65 | Multiple of change ([2]; gene NCFIB, neurons with Alzheimer's disease symptoms): 34.03 | Multiple of change ([2]; gene NT5E, neurons with Alzheimer's disease symptoms): −12.60 | Multiple of change ([2]; gene SAP30L-AS1, neurons with Alzheimer's disease symptoms): 5.80 | Multiple of change ([2]; gene SH3RF3, neurons with Alzheimer's disease symptoms): 23.23 | Multiple of change ([2]; gene SPANXN3, neurons with Alzheimer's disease symptoms): 23.24 | Multiple of change ([2]; gene STAPI, neurons with Alzheimer's disease symptoms): −12.79 | Multiple of change ([2]; gene TAC4, neurons with Alzheimer's disease symptoms): 12.64 | Multiple of change ([2]; gene TDRD5, neurons with Alzheimer's disease symptoms): 31.41 | Multiple of change ([2]; gene THC2717143, neurons with Alzheimer's disease symptoms): 29.19 | Multiple of change ([2]; gene TMC3-AS1, neurons with Alzheimer's disease symptoms): 6.53 | Multiple of change ([2]; gene TSKS, neurons with Alzheimer's disease symptoms): 8.21 | Multiple of change ([2]; gene TTTY14, neurons with Alzheimer's disease symptoms): −22.89 | Multiple of change ([2]; gene XLOC 12 011873, neurons with Alzheimer's disease symptoms): 6.35 | Multiple of change ([2]; gene lnc-AL450307.1-1, neurons with Alzheimer's disease symptoms): −56.05 | Multiple of change ([2]; gene lnc-C50rf49-2, neurons with Alzheimer's disease symptoms): 34.90 | Multiple of change ([2]; gene lnc-CYP3A43-2, neurons with Alzheimer's disease symptoms): −60.06 | Multiple of change ([2]; gene lnc-FZDIO-3, neurons with Alzheimer's disease symptoms): 39.19 | Multiple of change ([2]; gene lnc-ILIRI-1, neurons with Alzheimer's disease symptoms): −39.19 | Multiple of change ([2]; gene lnc-KCNC2-4, neurons with Alzheimer's disease symptoms): −8.92 | Multiple of change ([2]; gene lnc-KCNG3-1, neurons with Alzheimer's disease symptoms): 29.33 | Multiple of change ([2]; gene lnc-KHDRBS3-9, neurons with Alzheimer's disease symptoms): 27.98 | Multiple of change ([2]; gene lnc-P2RY2-3, neurons with Alzheimer's disease symptoms): −105.51 | Multiple of change ([2]; gene lnc-PGPEPIL-I, neurons with Alzheimer's disease symptoms): 35.28 | Multiple of change ([2]; gene lnc-PTGES-I, neurons with Alzheimer's disease symptoms): 28.50 | Multiple of change ([2]; gene lnc-USP16-7, neurons with Alzheimer's disease symptoms): 31.72 | Multiple of change ([2]; gene lnc-ZBTB7C-1, neurons with Alzheimer's disease symptoms): −60.03 | Expression of four long noncoding RNA (lncRNA) ([2]; n-BP-treated Ts-21 iPSCs): less than −50 fold | ATP6V0D2 expression level, increase [2, 4]: 30.07 times | IST1 expression level, increase [2, 4]: 15.72 times | ADAMDEC1 expression level, reduced by [2, 5]: 43.55 times | DEC1 expression level, reduced by [2, 5]: 28.35 times | NT5E expression level, reduced by [2, 5]: 12.6 times | STAP1 expression level, reduced by [2, 5]: 12.79 times | Therapeutic effect on accumulation of amyloid in the brain (3xTg transgenic mice): significantly improved therapeutic effect | Aβ1-42 protein expression [3]: 35.02%±24.39% | Expression of proteins in NICD [3]: no change | PSEN1 protein expression [3]: 65.94%±4.52% | Aβ1-42 expression (ELISA, medium) (Aβ1-42): decrease | Cell survival (biosafety) (SH-SY5Y): Neither butylidenephthalide nor vitamin C has any effect on cell survival | Standardized uptake value ratio (SUVR) of FBB in the hippocampus and cortex (3xTg AD mice; 120 mg n-BP/kg, age 12 months vs age 6 months): significantly lower | Aβ accumulation in hippocampus and cortex (18F-FBB PET/CT) (3xTg AD mice; 3xTg AD mice, oral n-BP 60 or 120 mg/kg): less AP accumulation; also recorded: low levels of amyloid accumulation
